Laboratory results taken from paper PMC10443802, “Targeting a xenobiotic transporter to ameliorate vincristine-induced sensory neuropathy” (JCI Insight, 2023).
Several values for one entry are separate records, joined by “and”; a condition that tells them apart may be missing. Identical values can stand only once. Like-named read-outs stand apart in the source and are kept apart here.

Key:
OATP1B-type transporters = settings: cited from earlier work
mice [1] = settings: cited from earlier work
mice [2] = settings: for Protection against treatment-related mechanical allodynia by OATP1B2 deficiency: mouse, in vivo
hOATP1B1 [3] = biological target: T1, hOATP1B1 (Homo sapiens, UniProt Q9Y6L6); assay: Inhibition of vincristine uptake in HEK293 cells overexpressing hOATP1B1; settings: inhibitor 15 min pre-treatment
T1 sequence (Q9Y6L6 1-691): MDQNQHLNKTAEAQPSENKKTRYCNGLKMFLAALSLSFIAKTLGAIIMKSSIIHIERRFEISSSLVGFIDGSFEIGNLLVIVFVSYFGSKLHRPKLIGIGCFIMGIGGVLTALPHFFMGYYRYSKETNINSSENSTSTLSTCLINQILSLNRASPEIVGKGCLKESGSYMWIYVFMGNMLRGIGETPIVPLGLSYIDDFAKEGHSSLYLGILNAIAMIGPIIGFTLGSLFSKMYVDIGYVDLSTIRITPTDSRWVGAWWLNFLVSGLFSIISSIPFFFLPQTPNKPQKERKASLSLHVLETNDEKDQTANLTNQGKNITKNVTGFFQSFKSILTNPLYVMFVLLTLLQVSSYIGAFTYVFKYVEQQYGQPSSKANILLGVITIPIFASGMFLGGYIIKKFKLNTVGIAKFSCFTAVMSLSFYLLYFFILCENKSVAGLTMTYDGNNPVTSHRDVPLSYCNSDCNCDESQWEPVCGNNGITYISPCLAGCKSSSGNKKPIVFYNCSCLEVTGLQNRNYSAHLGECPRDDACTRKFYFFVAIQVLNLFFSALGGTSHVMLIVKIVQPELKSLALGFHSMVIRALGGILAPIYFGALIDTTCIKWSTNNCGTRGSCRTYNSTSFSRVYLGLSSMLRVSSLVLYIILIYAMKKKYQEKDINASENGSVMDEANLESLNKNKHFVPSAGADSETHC

hOATP1B3 [4] = biological target: T2, hOATP1B3 (Homo sapiens, UniProt Q9NPD5); assay: Inhibition of vincristine uptake in HEK293 cells overexpressing hOATP1B3; settings: inhibitor 15 min pre-treatment
T2 sequence (Q9NPD5 1-702): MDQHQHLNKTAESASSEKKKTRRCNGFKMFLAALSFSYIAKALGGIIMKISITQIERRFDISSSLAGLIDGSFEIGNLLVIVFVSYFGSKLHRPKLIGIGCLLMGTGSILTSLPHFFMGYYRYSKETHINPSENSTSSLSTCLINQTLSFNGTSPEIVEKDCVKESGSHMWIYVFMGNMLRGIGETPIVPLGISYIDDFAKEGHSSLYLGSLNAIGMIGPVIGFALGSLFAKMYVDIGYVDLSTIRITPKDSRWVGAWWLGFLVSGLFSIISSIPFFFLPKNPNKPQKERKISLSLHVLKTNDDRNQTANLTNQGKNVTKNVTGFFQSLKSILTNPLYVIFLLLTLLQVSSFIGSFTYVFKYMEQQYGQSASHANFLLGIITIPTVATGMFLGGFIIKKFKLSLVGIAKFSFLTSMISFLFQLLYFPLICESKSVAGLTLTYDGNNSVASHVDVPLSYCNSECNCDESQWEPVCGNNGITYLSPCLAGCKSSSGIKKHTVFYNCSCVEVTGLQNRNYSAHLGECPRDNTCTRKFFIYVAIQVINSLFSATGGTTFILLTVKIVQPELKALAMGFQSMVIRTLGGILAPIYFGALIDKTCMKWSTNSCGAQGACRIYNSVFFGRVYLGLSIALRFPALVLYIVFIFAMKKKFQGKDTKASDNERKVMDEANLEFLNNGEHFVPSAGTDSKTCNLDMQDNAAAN

mOATP1B2 [5] = biological target: T3, mOATP1B2 (Mus musculus, UniProt Q9JJL3); assay: Inhibition of vincristine uptake in HEK293 cells overexpressing mOATP1B2; type: cell-based
T3 sequence (Q9JJL3 1-689): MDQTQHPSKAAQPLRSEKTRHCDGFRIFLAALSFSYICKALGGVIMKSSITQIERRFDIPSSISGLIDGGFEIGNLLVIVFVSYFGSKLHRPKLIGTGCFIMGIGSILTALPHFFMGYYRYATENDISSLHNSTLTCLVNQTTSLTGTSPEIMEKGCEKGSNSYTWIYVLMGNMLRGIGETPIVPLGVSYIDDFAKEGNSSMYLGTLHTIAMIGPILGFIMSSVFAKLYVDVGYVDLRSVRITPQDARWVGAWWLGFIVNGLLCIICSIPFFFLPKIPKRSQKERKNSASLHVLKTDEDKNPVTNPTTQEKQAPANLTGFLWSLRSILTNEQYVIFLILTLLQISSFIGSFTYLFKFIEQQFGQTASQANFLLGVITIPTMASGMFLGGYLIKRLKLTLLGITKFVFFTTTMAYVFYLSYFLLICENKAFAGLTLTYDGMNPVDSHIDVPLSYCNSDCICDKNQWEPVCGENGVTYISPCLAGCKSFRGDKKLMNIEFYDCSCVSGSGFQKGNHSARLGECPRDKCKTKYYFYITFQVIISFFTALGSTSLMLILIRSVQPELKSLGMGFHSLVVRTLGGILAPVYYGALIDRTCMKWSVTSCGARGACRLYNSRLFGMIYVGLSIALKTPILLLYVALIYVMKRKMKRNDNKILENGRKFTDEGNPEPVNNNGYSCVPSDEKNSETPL

hOATP1B1 [6] = biological target: T1, hOATP1B1; assay: Inhibition of EβG uptake in HEK293 cells overexpressing hOATP1B1; settings: inhibitor 10 μM, 15-min pre-incubation
OATP1B2 = assay: Plasma level and DRG/plasma ratio of α-tocopherol in mice (biomarker of OATP1B2 function); type: in vivo, mouse
hOATP1B3 [7] = biological target: T2, hOATP1B3; assay: Inhibition of EβG uptake in HEK293 cells overexpressing hOATP1B3; settings: HEK293 hOATP1B3; inhibitor 10 μM, 15-min pre-incubation
mOATP1B2 [8] = biological target: T3, mOATP1B2; assay: Inhibition of EβG uptake in HEK293 cells overexpressing mOATP1B2; type: cell-based
[9] = mOATP1B2, in presence of alpha-tocopherol

Compound: OCCN(CCO)c1nc(N2CCCCC2)c2nc(N(CCO)CCO)nc(N3CCCCC3)c2n1 [Dipyridamole, dipyridamole]
- Inhibitory potency against OATP1B-type transporters (OATP1B-type transporters): moderate inhibitory potency
- Protection against VIPN (mice [1]): partially protected against VIPN in mice

Compound: CC(=O)O[C@@]12CO[C@@H]1C[C@H](O)[C@@]1(C)C(=O)[C@H](O)C3=C(C)[C@@H](OC(=O)[C@H](O)[C@@H](NC(=O)OC(C)(C)C)c4ccccc4)C[C@@](O)([C@@H](OC(=O)c4ccccc4)[C@H]21)C3(C)C [Docetaxel, docetaxel]
- Protection against treatment-related mechanical allodynia by OATP1B2 deficiency (mice [2]; DBA/1LacJ): independently of OATP1B2

Compound: C=C1C[C@@H]2CC[C@@]34C[C@H]5O[C@H]6[C@@H](O3)[C@H]3O[C@H](CC[C@@H]3O[C@H]6[C@H]5O4)CC(=O)C[C@@H]3[C@@H](OC)[C@@H](C[C@H](O)CN)O[C@H]3C[C@H]3O[C@@H](CC[C@@H]1O2)C[C@@H](C)C3=C [Eribulin, eribulin]
- Protection against treatment-related mechanical allodynia by OATP1B2 deficiency (mice [2]; DBA/1LacJ): independently of OATP1B2

Compound: C/C(=C\c1csc(C)n1)[C@@H]1C[C@@H]2O[C@]2(C)CCC[C@H](C)[C@H](O)[C@@H](C)C(=O)C(C)(C)[C@@H](O)CC(=O)N1 [Ixabepilone, ixabepilone]
- Protection against treatment-related mechanical allodynia by OATP1B2 deficiency (mice [2]; DBA/1LacJ): independently of OATP1B2

Compound: CC(=O)O[C@H]1C(=O)[C@@]2(C)[C@H]([C@H](OC(=O)c3ccccc3)[C@]3(O)C[C@H](OC(=O)[C@H](O)[C@@H](NC(=O)c4ccccc4)c4ccccc4)C(C)=C1C3(C)C)[C@]1(OC(C)=O)CO[C@@H]1C[C@@H]2O [Paclitaxel, paclitaxel]
- Protection against treatment-related mechanical allodynia by OATP1B2 deficiency (mice [2]): protection against treatment-related mechanical allodynia was only observed

Compound: CO[C@H]1/C=C/O[C@@]2(C)Oc3c(C)c(O)c4c(O)c(c(/C=N/N5CCN(C)CC5)c(O)c4c3C2=O)NC(=O)/C(C)=C\C=C\[C@H](C)[C@H](O)[C@@H](C)[C@@H](O)[C@@H](C)[C@H](OC(C)=O)[C@@H]1C [Rifampicin, rifampicin]
- Vincristine uptake (% of vehicle) (hOATP1B1 [3]): 68.5513 % of vehicle and 91.3571 % of vehicle and 64.0921 % of vehicle
- Vincristine uptake (% of vehicle) (hOATP1B3 [4]): 68.0365 % of vehicle and 67.1426 % of vehicle and 57.6334 % of vehicle and 46.0272 % of vehicle and 55.4053 % of vehicle and 65.8991 % of vehicle
- Protective effect against VIPN (mechanical allodynia) (mice [2]; rifampin pretreatment 20 mg/kg, single vincristine 1 mg/kg, wild-type mice): could be replicated with pretreatment of orally administered rifampin
- Vincristine uptake (% of vehicle) (mOATP1B2 [5]; HEK293 mOATP1B2, inhibitor 15 min pre-treatment): 69.4167 % of vehicle and 71.9856 % of vehicle and 78.1737 % of vehicle and 74.3324 % of vehicle and 63.8503 % of vehicle and 67.3213 % of vehicle
- EβG uptake (% of vehicle) (hOATP1B1 [6]): 26.1825 % of vehicle and 31.1005 % of vehicle and 27.1566 % of vehicle
- Level of α-tocopherol (% of wild-type baseline), DRG/Plasma Ratio (OATP1B2; WT mice treated with the inhibitor, DRG/plasma ratio, listed as Rifampin): 27.9959% and 27.249% and 34.1971%
- Level of α-tocopherol (% of wild-type baseline), Plasma (OATP1B2; WT mice treated with the inhibitor, plasma, listed as Rifampin): 236.636% and 352.754% and 217.386%
- Level of α-tocopherol (% of wild-type baseline), relative DRG/plasma ratio (OATP1B2; WT mice, 2 hours after rifampin 20 mg/kg i.p.): 27.9959 % of wild-type baseline and 27.249 % of wild-type baseline and 34.1971 % of wild-type baseline
- EβG uptake (% of vehicle) (hOATP1B3 [7]): 4.339 % of vehicle and 4.237 % of vehicle and 4.051 % of vehicle
- EβG uptake (% of vehicle) (mOATP1B2 [8]; HEK293 mOATP1B2, inhibitor 10 μM, 15-min pre-incubation): 9.089 % of vehicle and 9.168 % of vehicle and 8.011 % of vehicle

Compound: CCC1=C[C@@H]2CN(C1)Cc1c([nH]c3ccccc13)[C@@](C(=O)OC)(c1cc3c(cc1OC)N(C)[C@H]1[C@@](O)(C(=O)OC)[C@H](OC(C)=O)[C@]4(CC)C=CCN5CC[C@]31[C@@H]54)C2 [Vinorelbine, vinorelbine]
- Protection against treatment-related mechanical allodynia by OATP1B2 deficiency (mice [2]; DBA/1LacJ): independently of OATP1B2

Compound: Cc1c(C)c2c(c(C)c1O)CC[C@@](C)(CCC[C@H](C)CCC[C@H](C)CCCC(C)C)O2 [alpha-tocopherol]
- Vincristine uptake (% of vehicle) (mOATP1B2 [5]; [9]): 51.7599% and 63.6149% and 58.7604%
- EβG uptake (% of vehicle) (mOATP1B2 [8]; [9]): 113.612% and 99.0126% and 119.375% and 118.704% and 95.6597% and 100.791%
